According to US8685936B2, “Sphingosine kinase inhibitor prodrugs” (Apogee Biotechnology Corporation, priority 2009, dated 2014):
Entries after “also recorded” stand apart in the source; their conditions may differ.

Assays:
[1] = tested on: esterases in mouse plasma; assay: Conversion of ester prodrugs to Compound 1 by mouse plasma (HPLC); type: in vitro ADME
Protocol: FIG. 2. Chromatogram of Compound 2. Purified Compound 2 was analyzed by high-performance liquid chromatography using a Waters 2795 system equipped with a photodiode array detector. Separations were conducted using a Nova-Pak C18 column (3.9×150 mm, Waters) eluted isocratically with a mobile phase that consisted of 65% Solvent A (methanol containing 0.1% formic acid) and 35% Solvent B (5% acetonitrile and 95% water containing 0.1% formic acid) at a flow rate of 0.6 mL/min. Compound 2 was detected by its absorbance at the wavelength of 265 nm.
FIG. 3. Conversion of Compound 2 to Compound 1 by plasma enzymes. Purified Compound 2 was incubated with mouse plasma for 5 minutes at room temperature. The sample was then extracted and analyzed by high-performance liquid chromatography as described for FIG. 2.
Prodrugs are compounds that are converted to a biologically active metabolite through the action of enzymes in the body. […] When Compound 2 was incubated with plasma isolated from mouse blood at room temperature for 5 minutes and then analyzed by a similar HPLC process, the peak corresponding to Compound 2 was reduced by more than 95%, and new compounds that eluted with retention times consistent with the monoester of Compound 1, i.e. one of the acetyl esters had been removed, and Compound 1 itself, i.e. both of the acetyl esters had been removed (FIG. 3). […]

[2] = Conversion of Compound 2 to Compound 1 in living mice; plasma levels of Compound 1 by HPLC; type: in vivo
Protocol: FIG. 4. Conversion of Compound 2 into Compound 1 in vivo. Balb/C female mice, 6-8 weeks old, were dosed with either Compound 1 (●) or Compound 2 (♦) at 50 mg/kg by intravenous injection. Mice were euthanized at the indicate times after injection, and blood was harvested by cardiac puncture and plasma was prepared. The plasma was then extracted and analyzed for Compound 1 levels by HPLC.
To extend the in vitro studies described above, the ability of Compound 2 to be converted to Compound 1 in an in vivo test system was determined. In these experiments, Compound 1 or Compound 2 was dissolved in PEG400 and administered to female Balb/C mice at a dose of 50 mg/kg by intravenous injection. Mice were sacrificed and blood was removed via cardiac puncture at 2 minutes, 15 minutes, 30 minutes or 60 minutes. The concentration of Compound 1 in the blood of the animals at each of the time points was determined using HPLC with UV detection as described in the previous Example. […] In the case of administration of Compound 2, plasma concentrations of Compound 1 rose during the first 30 minutes and then were decreased with a half-time of clearance of approximately 20 minutes.

DSS-colitis model = assay: Acute DSS-colitis model of inflammatory bowel disease; type: in vivo, C57BL/6 mice
Protocol: FIG. 7. Effects of Compound 1 and Compound 2 on the Disease Activity Index (DAI) in the acute DSS-colitis model. […] After 6 days, the DAI was calculated for each group. Values represent the mean±std. dev. for 5-6 mice per group. […] FIG. 8. Effects of Compound 1 and Compound 2 on colon length in the acute DSS-colitis model. […] After 6 days, the animals were sacrificed and the length of the colon was measured. Values represent the mean±std. dev. for 6-7 mice per group. In this model, colon length decreases as the disease progresses. […] FIG. 9. Effects of Compound 1 and Compound 2 on neutrophil infiltration into the colon in the acute DSS-colitis model. […] After 6 days, the animals were sacrificed and the colons were harvested. Myeloperoxidase activity (MPO) was measured and normalized by the protein concentration of the samples. Values represent the mean±std. dev. for 6-7 mice per group. In this model, MPO activity in the colon increases as a result of neutrophil infiltration into the colon as the disease progresses. […] FIG. 10. Effects of ester prodrugs on colon length in the acute DSS-colitis model. C57BL/6 mice were treated for 6 days as follows: 2% DSS in the drinking water and daily oral administration of Vehicle (described in FIG. 7); or 2% DSS in the drinking water and oral administration of 50 mg/kg the indicated ester prodrugs in Vehicle. After 6 days, the animals were sacrificed and the length of the colon was measured. Values represent the mean±std. dev. for 4-5 mice per group. In this model, colon length decreases as the disease progresses. […] FIG. 11. Effects of ester prodrugs on neutrophil infiltration into the colon in the acute DSS-colitis model. C57BL/6 mice were treated for 6 days as follows: 2% DSS in the drinking water and daily oral administration of Vehicle (described in FIG. 7); or 2% DSS in the drinking water and oral administration of 50 mg/kg the indicated ester prodrugs in Vehicle. After 6 days, the animals were sacrificed and the length of the colon was measured. Values represent the mean±std. dev. for 4-5 mice per group. In this model, MPO activity in the colon increases as a result of neutrophil infiltration into the colon as the disease progresses. […] In these experiments, male C57BL/6 mice were provided with standard rodent diet and water ad libitum. After their acclimation, the animals were randomly divided into groups of 5 or 6 for DSS (40,000 MW from ICN Biomedicals, Inc., Aurora, Ohio)- and drug-treatment. The Compounds were dissolved in a Vehicle consisting of 46.7% PEG 400, 46.7% of a solution of 0.375% Tween 80 in saline and 6.6% ethanol, and given once daily (starting on Day 0) by oral gavage in a volume of 0.1 mL per dose. The mice were given normal drinking water or 2% DSS (starting on Day 0) and treated orally with Compound 1 or Compound 2 at a dose of 50 mg/kg daily. The body weight of each animal was measured each day, and the Disease Activity Index (DAI) was scored for each animal on Day 6. On Day 6, the animals were sacrificed by cervical dislocation and the entire colon was removed and measured to the nearest 0.1 cm. The distal 3 cm of the colons were used for biochemical analyses of inflammation markers.

With `CC(=O)Oc1ccc(CCNC(=O)C23CC4CC(C2)CC(c2ccc(Cl)cc2)(C4)C3)cc1OC(C)=O` [Compound 2, Acetic acid 2-acetoxy-5-(2-{[3-(4-chlorophenyl)-adamantane-1-carbonyl]-amino}ethyl)phenyl ester] the “reduction of the HPLC peak corresponding to Compound 2” value ([1]; incubated with mouse plasma at room temperature for 5 minutes) was “more than 95%”, the “cleavage of the esters / conversion to Compound 1 by mouse plasma” value ([1]; mouse plasma, room temperature, 5 minutes, HPLC) was “rapidly convert Compound 2 into Compound 1” and the “area-under-the-curve (AUC) for exposure to circulating Compound 1, compared with dosing Compound 1 itself” value ([2]; 50 mg/kg intravenous, female Balb/C mice) was “much greater”. For the same molecule, the “half-time for clearance of Compound 1 from plasma” value ([2]; 50 mg/kg of the named compound by intravenous injection in PEG400, female Balb/C mice, Compound 1 measured) was “approximately 20 minutes”, the “Disease Activity Index (DAI)” value (DSS-colitis model; 2% DSS in drinking water, 50 mg/kg daily oral, Day 6, C57BL/6 mice, 50 mg/kg) was “reduced the intensity of the IBD manifestations; also recorded: superior to Compound 1 in reducing the DAI” and the “colon myeloperoxidase (MPO) activity (neutrophil infiltration)” value (DSS-colitis model; 2% DSS, 50 mg/kg daily oral, Day 6, C57BL/6 mice (Example 16, FIG. 9), 50 mg/kg) was “markedly attenuated; also recorded: reduced to a greater extent”. The “colon length (contraction of the colon), ester prodrugs” value (DSS-colitis model; 2% DSS, 50 mg/kg oral, 6 days, C57BL/6 mice, 4-5 per group (Example 17, FIG. 10)) was “effective in preventing the contraction of the colons” and the colon length (DSS-colitis model; 2% DSS, 50 mg/kg oral, Day 6, C57BL/6 mice (Example 16, FIG. 8), 50 mg/kg) was “colons of significantly longer length; also recorded: superior to the protective effect of Compound 1”.
